The source of these data is ChEMBL document CHEMBL1201862, “PubChem BioAssay data set” (2004).

Holding throughout (experiment): inhibition of tumour cell growth, NCI panel, 48 h
The subject of assay [1] is A498.
Assay [2] concerns HCT-15.
Assay [3] relates to CAKI-1.
In assay [4] the test system is UACC-62.
Assay [5] deals with MCF7.
Assay [6] relates to KM12.
For assay [7], the system named is SR.
Assay [8] relates to SF-295.
For assay [9], the system named is SNB-75.
Assay [10] concerns OVCAR-3.
Assay [11] deals with LOX IMVI.
Assay [12] has as its system HOP-92.
Assay [13] concerns A549.
Assay [14] relates to Hs-578T.
For assay [15], the system named is SK-MEL-2.
In assay [16] the test system is 786-0.
For assay [17], the system named is COLO 205.
The subject of assay [18] is MDA-MB-231.
Assay [19] concerns RPMI-8226.
Assay [20] deals with Malme-3M.

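Protocol summary: plate cells (96-well), add compound at 5 concentrations, incubate 48 h, interpolate endpoints linearly. GI50: concentration for 50% inhibition of growth.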 Activity calls are given as the source filed them. Cut-off read from the data, not from the text of the source: active = GI50 up to about 1.1 µM and inactive = higher.

As for `Cc1c([N+](=O)[O-])oc2ccc3ccccc3c12`, the GI50 was 22.8 µM (inactive) in assay [1]; 19 µM in assay [2]; 11.9 µM (inactive) in assay [3]; 56.1 µM (inactive) in assay [4]; 10.3 µM (inactive) in [5]; 29.9 µM (inactive) in [6]. In addition, the GI50 in assay [7] is 2.9 µM (inactive); in [8], 58.1 µM (inactive); in [9], 28.5 µM (inactive); in [10], > 100 µM (inactive); in assay [11] it was 18.5 µM (inactive); in [12], > 100 µM (inactive). Besides, the GI50 in assay [13] was 66.1 µM (inactive); in assay [14] it was > 100 µM (inactive); in [15], > 100 µM (inactive); in assay [16], 18.1 µM (inactive); in assay [17], 6.79 µM (inactive); in assay [18] it was > 100 µM (inactive). Moreover, in assay [19], the GI50 is 9.33 µM (inactive).
For the compound `CCOC(=O)C1C(c2ccc(OC)cc2)c2c(nn(-c3ccccc3)c2O)CC1(O)OCC` (stereo not drawn), the GI50 in assay [1] was > 100 µM (inactive); in [2], 77.4 µM; in assay [3] it was > 100 µM (inactive); in [4] it was 7.67 µM (inactive); in assay [5], 30.1 µM (inactive); in [6], 3.4 µM (inactive). The GI50 in assay [20] was 75.5 µM (inactive); in assay [7] it was 2.17 µM (inactive); in [8], 1.92 µM (inactive); in [9], 82.4 µM (inactive); in assay [10] it was > 100 µM (inactive); in [11], 0.597 µM (active). For the same compound, the GI50 was > 100 µM (inactive) in assay [12]; 24 µM (inactive) in assay [13]; > 100 µM (inactive) in assay [14]; > 100 µM (inactive) in assay [15]; 63.4 µM (inactive) in assay [16]; 36.5 µM (inactive) in assay [17]. Also, the GI50 is 39.9 µM (inactive) in [18] and 2.58 µM (inactive) in assay [19].
For the compound `CC(C)(CCC(C)(C)N1OC1c1ccccc1)N1OC1c1ccccc1` (stereo not drawn), the GI50 is 32 µM (inactive) in [1]; 28.6 µM in assay [2]; 23.4 µM (inactive) in assay [3]; > 100 µM (inactive) in [4]; 28.7 µM (inactive) in assay [5]; 57.1 µM (inactive) in assay [6]. The GI50 in assay [20] is > 100 µM (inactive); in [7], 14.1 µM (inactive); in assay [8], 44.5 µM (inactive); in assay [9], > 100 µM (inactive); in assay [11], 26.4 µM (inactive); in [12] it was 33.4 µM (inactive). Besides, the GI50 is 11.6 µM (inactive) in [13]; 36.2 µM (inactive) in [14]; 21.5 µM (inactive) in assay [15]; 54.1 µM (inactive) in assay [16]; 47.2 µM (inactive) in assay [17]; 26.4 µM (inactive) in assay [18]. Also, the GI50 in assay [19] was 28.9 µM (inactive).
On to `CC(C)(C)c1cc(C2NCCO2)cc(C(C)(C)C)c1O` (stereo not drawn), for which the GI50 in assay [1] was > 100 µM (inactive); in [2] it was 57 µM; in [3], 45.9 µM (inactive); in assay [4], > 100 µM (inactive); in [5], 76.7 µM (inactive); in [6], > 100 µM (inactive). The GI50 is > 100 µM (inactive) in assay [20]; > 100 µM (inactive) in [7]; 34.6 µM (inactive) in assay [8]; 10.8 µM (inactive) in assay [9]; > 100 µM (inactive) in [10]; > 100 µM (inactive) in assay [11]. Moreover, the GI50 in [12] is 74.6 µM (inactive); in assay [14] it was 79.3 µM (inactive); in assay [15] it was 35.2 µM (inactive); in assay [16], 65.8 µM (inactive); in assay [17], > 100 µM (inactive); in assay [18], 20.6 µM (inactive). Also, the GI50 in assay [19] was > 100 µM (inactive).
On to `CCc1c(C)c(C#N)c(=S)n(C2OC(COC(C)=O)C(OC(C)=O)C(OC(C)=O)C2OC(C)=O)c1-c1ccccc1` (stereo not drawn), for which the GI50 is 14.6 µM (inactive) in assay [1]; greater than 31.6 µM in [2]; 72.3 µM (inactive) in assay [3]; > 10 µM (inactive) in assay [4]; > 31.6 µM (inactive) in [5]; > 31.6 µM (inactive) in [6]. Further, the GI50 is > 31.6 µM (inactive) in assay [20]; > 31.6 µM (inactive) in [7]; 16.2 µM (inactive) in assay [8]; 1.84 µM (inactive) in [9]; > 31.6 µM (inactive) in [10]; > 31.6 µM (inactive) in assay [11]. Also, the GI50 is 22.1 µM (inactive) in assay [12]; > 31.6 µM (inactive) in assay [13]; 20.7 µM (inactive) in assay [14]; 21.8 µM (inactive) in assay [15]; 20.7 µM (inactive) in [16]; > 31.6 µM (inactive) in assay [17]. Further, the GI50 in assay [18] is 28.4 µM (inactive); in [19] it was 82 µM (inactive).
Take `C/C(=N\NC(=S)N(C)C)c1nc2cccnc2[nH]1`: the GI50 in [1] is 8.28 µM (inactive); in assay [2], 0.443 µM; in assay [3] it was 0.501 µM (active); in [4], 0.396 µM (active); in assay [5] it was 1.05 µM (active); in assay [20], 1.38 µM (inactive). Moreover, the GI50 in [7] is 0.679 µM (active); in assay [9], 3.18 µM (inactive); in [11] it was 0.673 µM (active); in assay [12], 0.275 µM (active); in [13], 0.792 µM (active); in assay [14], 1.22 µM (inactive). Also, the GI50 is 0.583 µM (active) in assay [15]; 0.597 µM (active) in assay [16]; 0.325 µM (active) in [17]; 0.875 µM (active) in assay [18]; 2.07 µM (inactive) in [19].
Consider `CCCCCCCCCCCCCCC(C(=O)[O-])[n+]1ccccc1` (stereo not drawn), for which the GI50 in assay [1] was > 100 µM (inactive); in [2], greater than 100 µM; in assay [3], > 100 µM (inactive); in assay [4], 77.3 µM (inactive); in [5] it was 16.1 µM (inactive); in [6] it was > 100 µM (inactive). For the same compound, the GI50 in [7], in assay [8], in [9], in [10], in [11] and in [12] was > 100 µM (inactive) in each case. Further, the GI50 in assay [13], in assay [14], in assay [15], in assay [16], in assay [17] and in assay [18] was > 100 µM (inactive) throughout. For the same compound, in assay [19], the GI50 was > 100 µM (inactive).
For `COC(=O)C(CCC1C=CCC1)/N=C\c1ccccc1` (stereo not drawn), the GI50 is 81.5 µM (inactive) in assay [1]; 43.6 µM in assay [2]; 50.2 µM (inactive) in assay [3]; 74.8 µM (inactive) in assay [4]; 46.8 µM (inactive) in [5]; 45 µM (inactive) in assay [6]. Also, the GI50 in assay [7] was 38.3 µM (inactive); in assay [8] it was 57.7 µM (inactive); in assay [9] it was 93.3 µM (inactive); in assay [10], 66.5 µM (inactive); in assay [11], 76.7 µM (inactive); in assay [12], 67 µM (inactive). Also, the GI50 in [13] was 49.9 µM (inactive); in assay [14] it was > 100 µM (inactive); in [15], 37.5 µM (inactive); in [16] it was 66.2 µM (inactive); in assay [17] it was 48.8 µM (inactive); in assay [18] it was 68.9 µM (inactive). Further, the GI50 in assay [19] was 24.5 µM (inactive).
As to `Clc1ccccc1/C=C/c1nsc(/C=C/c2ccccc2Cl)n1`, the GI50 was > 100 µM (inactive) in assay [1]; 38 µM in assay [2]; > 100 µM (inactive) in assay [3]; 32 µM (inactive) in [5]; 88.9 µM (inactive) in assay [6]; 53.7 µM (inactive) in [20]. Besides, the GI50 in assay [7] was 22.1 µM (inactive); in assay [8] it was 54 µM (inactive); in assay [9], 71.4 µM (inactive); in assay [10], 40.1 µM (inactive); in assay [11], 37.2 µM (inactive); in [12], > 100 µM (inactive). Besides, the GI50 is 73.8 µM (inactive) in assay [13]; > 100 µM (inactive) in [14]; > 100 µM (inactive) in [15]; 19 µM (inactive) in [16]; 47.4 µM (inactive) in [17]; 60 µM (inactive) in assay [18]. In [19], the GI50 is 31.3 µM (inactive).
For the compound `COc1ccc(N)c(C(=O)CCNC(C)=O)c1` [KINURENAMINE], the GI50 in [1] was > 100 µM (inactive); in assay [2], greater than 100 µM; in assay [3], > 100 µM (inactive); in [4], > 100 µM (inactive); in assay [5] it was > 100 µM (inactive); in assay [6], > 100 µM (inactive). The GI50 in assay [7], in [8], in assay [9], in assay [10], in assay [11] and in assay [12] was > 100 µM (inactive) throughout. Moreover, the GI50 in assay [13], in [14], in [15], in assay [16], in assay [17] and in assay [18] was > 100 µM (inactive) in each case. In addition, the GI50 in assay [19] was > 100 µM (inactive).
In the case of `OCC1OC(n2cnc3c2NC=NC[C@H]3O)CC1O` (stereo partly drawn), the GI50 in assay [1] is 422 µM (inactive); in assay [2] it was greater than 500 µM; in assay [4] it was 415 µM (inactive); in assay [5], 441 µM (inactive); in assay [6], 495 µM (inactive); in assay [20], 458 µM (inactive). Also, the GI50 in assay [7] is 359 µM (inactive); in assay [8] it was 448 µM (inactive); in assay [9] it was 337 µM (inactive); in assay [10] it was 497 µM (inactive); in assay [11] it was 463 µM (inactive); in [12], 398 µM (inactive). The GI50 in [14] was > 500 µM (inactive); in [15], 497 µM (inactive); in assay [16] it was 455 µM (inactive); in assay [17] it was 472 µM (inactive); in assay [18], > 500 µM (inactive); in assay [19], 478 µM (inactive).
